Assay [1] addresses T1, hCTR I300A (Homo sapiens, UniProt P30988, I300A).
T1 construct: c-Myc (N); expressed in transfected cells
T1 sequence (P30988 25-474 I300A): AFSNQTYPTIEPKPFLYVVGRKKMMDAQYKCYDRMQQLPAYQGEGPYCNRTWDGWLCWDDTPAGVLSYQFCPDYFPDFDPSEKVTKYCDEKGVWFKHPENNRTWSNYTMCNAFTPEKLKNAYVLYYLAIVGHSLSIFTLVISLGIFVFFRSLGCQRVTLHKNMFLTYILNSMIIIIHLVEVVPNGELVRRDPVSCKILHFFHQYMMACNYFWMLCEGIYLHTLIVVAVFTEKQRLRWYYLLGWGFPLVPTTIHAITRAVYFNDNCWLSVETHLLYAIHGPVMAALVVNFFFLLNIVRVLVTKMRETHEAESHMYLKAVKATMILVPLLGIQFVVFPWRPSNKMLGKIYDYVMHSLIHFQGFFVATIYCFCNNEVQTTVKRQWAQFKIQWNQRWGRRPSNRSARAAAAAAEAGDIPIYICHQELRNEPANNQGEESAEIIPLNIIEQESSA
Put plainly: IP1 accumulation. The assay is classed as cell-based. Particulars: IP1 maximal response, mean ± S.E.M., SEM. The procedure, abridged:
(§1)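 HTRF IP-One readout of IP1 after 60 min ligand stimulation (LiCl present), cells seeded overnight. Normalized to 100 μM ATP max response. EC50/Emax via 3-parameter logistic curve fit.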

Assay [2] addresses T2, hCTR D287A (Homo sapiens, UniProt P30988, D287A).
T2 construct: c-Myc (N); expressed in transfected cells
T2 sequence (P30988 25-474 D287A): T1 sequence (P30988 25-474 I300A) with D263A, A276I
Put plainly: IP1 accumulation. Format: cell-based. Particulars: mean ± S.E.M. As for the experimental part: Cells (2.5 × 10^4 cells/well) were plated into 96 well trays and cultured overnight. Cells were stimulated with increasing concentration of ligands for 60 min in the presence of LiCl. Samples were lysed and endogenous IP1 was measured using an IP-One HTRF® assay kit (CisBio) as specified by the manufacturer. Data were normalized to the maximal response elicited by 100 μM of ATP.
IC50 and Bmax values were estimated from competitive inhibition of ^125I-sCT(8-32) binding using a 3-parameter logistic equation (log(inhibitor versus response)) in Prism (v7; Graphpad). Data were corrected for radioligand occupancy using the Cheng-Prusoff equation in Prism; as such data are reported as pKi. Emax and EC50 were estimated from concentration-response curves using with a 3-parameter logistic equation in Prism (v7). These values are a composite of functional affinity, efficacy and stimulus response coupling. […] Derived τ values were normalized to experimentally determined levels of cell surface expression to provide a measure of efficacy (τc) that is independent of affinity and altered cell surface receptor expression. pKi, pKA and log τc values for mutant receptors were statistically compared to those of the WT receptor using a one-way analysis of variance (ANOVA) and Dunnett’s post-test. […]

In assay [3] the target is T3, hCTR C289A (Homo sapiens, UniProt P30988, C289A).
T3 construct: c-Myc (N); expressed in transfected cells
T3 sequence (P30988 25-474 C289A): T1 sequence (P30988 25-474 I300A) with C265A, A276I
Put plainly: IP1 accumulation. The assay is classed as cell-based. The conditions noted are these: IP1 maximal response, mean ± S.E.M., SEM. An outline of the steps: as §1

Assay [4] deals with T4, hCTR I279A (Homo sapiens, UniProt P30988, I279A).
T4 construct: expressed in transfected cells
T4 sequence (P30988 25-474 I279A): T1 sequence (P30988 25-474 I300A) with I255A, A276I
Briefly: Homologous whole cell competition binding. The conditions noted are these: homologous competition of 125I-sCT(8-32), whole cells, mean ± S.E.M., SEM. An outline of the steps:
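Affinity comes from self-competition of sCT(8-32) against its iodinated form on intact cells, held at 4 °C overnight. Bound counts were read on a gamma counter, fitted to a 3-parameter logistic curve and converted with Cheng-Prusoff.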

This note sets out measurements from PMC5908784, “Extracellular loops 2 and 3 of the calcitonin receptor selectively modify agonist binding and efficacy” (Biochemical Pharmacology, 2018).

Positions count from the first letter of the chain named. Where a SMILES comes first, the peptide text is derived from it. Bridges are numbered along the chain shown (N, C = ends). Where no end group is shown, it is not given here.

For orientation: Emax means the maximal effect, on the per cent scale that the assay sets. Regarding `CC[C@H](C)[C@H](NC(=O)[C@H](C)NC(=O)[C@@H](NC(=O)[C@H](CCC(N)=O)NC(=O)[C@@H]1CCCN1C(=O)[C@H](Cc1ccccc1)NC(=O)[C@@H](NC(=O)[C@H](Cc1c[nH]cn1)NC(=O)[C@H](Cc1ccccc1)NC(=O)[C@H](CCCCN)NC(=O)[C@H](CC(N)=O)NC(=O)[C@H](Cc1ccccc1)NC(=O)[C@H](CC(=O)O)NC(=O)[C@H](CCC(N)=O)NC(=O)[C@@H](NC(=O)[C@H](Cc1ccc(O)cc1)NC(=O)[C@@H](NC(=O)CNC(=O)[C@H](CC(C)C)NC(=O)[C@H](CCSC)NC(=O)[C@@H]1CSSC[C@H](N)C(=O)NCC(=O)N[C@@H](CC(N)=O)C(=O)N[C@@H](CC(C)C)C(=O)N[C@@H](CO)C(=O)N[C@@H]([C@@H](C)O)C(=O)N1)[C@@H](C)O)[C@@H](C)O)[C@@H](C)O)[C@@H](C)O)C(=O)NCC(=O)N[C@H](C(=O)NCC(=O)N[C@@H](C)C(=O)N1CCC[C@H]1C(N)=O)C(C)C` [hCT], in assay [1], the maximal effect (Emax) stood at 44 ± 4%. Usually EC50 stands for the concentration at which the effect is half-maximal. `CSCC[C@H](NC(=O)CNC(=O)[C@H](CO)NC(=O)[C@H](Cc1ccccc1)NC(=O)[C@H](CCCNC(=N)N)NC(=O)[C@H](Cc1c[nH]cn1)NC(=O)[C@H](Cc1ccccc1)NC(=O)[C@H](CC(N)=O)NC(=O)[C@H](CC(N)=O)NC(=O)[C@H](CC(C)C)NC(=O)[C@H](CC(N)=O)NC(=O)[C@H](CCCNC(=N)N)NC(=O)[C@H](Cc1c[nH]c2ccccc12)NC(=O)[C@H](Cc1ccc(O)cc1)NC(=O)[C@H](C)NC(=O)[C@H](CO)NC(=O)[C@H](CC(C)C)NC(=O)[C@@H](NC(=O)[C@@H]1CSSC[C@H](N)C(=O)N[C@@H](CO)C(=O)N[C@@H](CC(N)=O)C(=O)N[C@@H](CC(C)C)C(=O)N[C@@H](CO)C(=O)N[C@@H]([C@@H](C)O)C(=O)N1)C(C)C)C(=O)NCC(=O)N[C@@H](Cc1ccccc1)C(=O)NCC(=O)N1CCC[C@H]1C(=O)N[C@@H](CCC(=O)O)C(=O)N[C@H](C(=O)N1CCC[C@H]1C(N)=O)[C@@H](C)O` [pCT] (H-CSNLSTCVLSAYWRNLNNFHRFSGMGFGPETP-NH2; disulfide 1-7) showed an EC50 in assay [2] (IP1, CV1-FlpIn cells, 60 min, LiCl) of 3.72 nM. In addition, the Emax in assay [2] (IP1 maximal response, SEM) was 56 ± 7%. In assay [3], `CC(C)C[C@H](NC(=O)[C@H](CCCCN)NC(=O)CNC(=O)[C@H](CC(C)C)NC(=O)[C@@H](NC(=O)[C@@H]1CSSC[C@H](N)C(=O)N[C@@H](CO)C(=O)N[C@@H](CC(N)=O)C(=O)N[C@@H](CC(C)C)C(=O)N[C@@H](CO)C(=O)N[C@@H]([C@@H](C)O)C(=O)N1)C(C)C)C(=O)N[C@@H](CO)C(=O)N[C@@H](CCC(N)=O)C(=O)N[C@@H](CCC(=O)O)C(=O)N[C@@H](CC(C)C)C(=O)N[C@@H](Cc1c[nH]cn1)C(=O)N[C@@H](CCCCN)C(=O)N[C@@H](CC(C)C)C(=O)N[C@@H](CCC(N)=O)C(=O)N[C@H](C(=O)N[C@@H](Cc1ccc(O)cc1)C(=O)N1CCC[C@H]1C(=O)N[C@@H](CCCNC(=N)N)C(=O)N[C@H](C(=O)N[C@@H](CC(N)=O)C(=O)N[C@H](C(=O)NCC(=O)N[C@@H](CO)C(=O)NCC(=O)N[C@H](C(=O)N1CCC[C@H]1C(N)=O)[C@@H](C)O)[C@@H](C)O)[C@@H](C)O)[C@@H](C)O` [sCT] had an Emax of 42 ± 4%.

Usually Ki stands for the dissociation constant of the complex between target and ligand, obtained from inhibition or displacement. Read a high Ki as a looser hold on the target. “VLGKLSQELHKLQTYPRTNTGSGTP-NH2 [sCT(8-32)]” showed a Ki in assay [4] of 0.191 nM.
